This note sets out measurements from US9109041B2, “Analog compounds of analgesic peptides derived from the venom of crotalus durissus terrificus snakes, their uses, compositions, methods of preparation and purification” (priority 2004, dated 2015).

In experiment [1] the test system is carrageenin-induced hyperalgesia. Nature of the experiment: rat paw pressure test, carrageenin-induced hyperalgesia. In kind it is in vivo. The following applies: for pain threshold, IM (g) ± S.E.M.: saline + antagonist alone i.pl. (CTOP 20, nor-BNI 50, ICI 174.864 10 μg/paw), before carrageenin; for pain threshold, FM (g) ± S.E.M: saline + antagonist alone i.pl. with carrageenin (CTOP 20, nor-BNI 50, ICI 174.864 10 μg/paw), after carrageenin. On the procedure:
The antinociceptive effect of the synthetic peptide was evaluated in the inflammatory hyperalgesia induced by carrageenin. […] Saline, administered by the same route was used as control.
As determined in the PGE2 model, the participation of opioid receptors in the antinociceptive effect of the peptide SEQ ID NO: 2 in the carrageenin-induced hyperalgesia (Table 10) was investigated. Therefore, the animals were treated with CTOP, a specific μ receptor antagonist (20 μg/paw), nor-BNI, a specific κ receptor antagonist (50 μg/paw) or with ICI 174.864, a specific δ receptor antagonist (10 μg/paw), injected by i.pl. route concomitantly to carrageenin. Peptide was administered in the dose of 1 μg/kg, orally, immediately before carrageenin.

The subject of experiment [2] is hyperalgesia induced by chronic constriction of the sciatic nerve. Description: hyperalgesia induced by chronic constriction of the sciatic nerve (rat paw pressure test). In kind it is in vivo. The following applies: saline + antagonist alone i.pl. (ICI 10, nor-BNI 50, CTOP 20 μg/paw); for pain threshold, FM 1 h: 1 h after treatment; for pain threshold, MF 3 h: 3 h after treatment; for pain threshold, BM: before surgery; for pain threshold, IM: day 14, before treatment. The procedure: For the induction of neuropathic pain, surgery was performed in the sciatic nerve, in accordance with the method described by Bennett, G. J and Xie, Y. K. (Pain, 33:87-107, 1988). The animals were anesthetized with halothane. The sciatic nerve was exposed in the middle region of the thigh, moving away the femoral biceps muscle. Close to the trifurcation of the sciatic nerve, 7 mm of distance from the trifurcation, 4 loose ligations were performed (chromed catgut 4-0) around it, distant from each other in approximately 1 mm. The bindings were performed along the nerve, up to 4-5 mm from the initial point. The incision was sutured in layers, using silk suture thread number 4-0.
The test was applied before (BM-basal measurement) and on the 14th day after the surgery, to characterize the development of neuropathic pain.
The results were analyzed by comparing the means of the basal and initial measurements or by comparing the means of the initial and final measurements or, when determined, through the comparison of the means obtained in the different experimental groups.
(§1) For this purpose, the animals were treated with CTOP, a specific μ receptor antagonist (20 μg/paw), nor-BNI, a specific κ receptor antagonist (50 μg/paw) or with ICI 174,864, a specific δ receptor antagonist (10 μg/paw). The antagonists were injected, by intraplantar route. The peptide was administered in the dose of 5 μg/kg, orally, immediately before the injection of the opioid antagonists.
The results were analyzed comparing the mean values of the basal and initial measurements, or of the initial and final measurements or, when determined, by comparing the mean values obtained in the different experimental groups (Tables 15 and 16).

For experiment [3], the system named is allodynia induced by the Walker 256 tumor. Nature of the experiment: allodynia induced by the Walker 256 tumor (cancer pain). In kind it is in vivo, rat. The following applies: saline + antagonist alone i.pl. (ICI 10, nor-BNI 50, CTOP 20 μg/paw); for paw withdrawal threshold (allodynia), FM / paw withdrawal threshold (allodynia), IM: 5th day; for paw withdrawal threshold (allodynia), FM: 2 hours after treatment; for paw withdrawal threshold (allodynia), IM: before treatment; for paw withdrawal threshold (allodynia), BM: before injection of the tumor.
Text: The Walker 256 tumor cells were kindly provided by Prof. Dr. Rui Curi, of the Physiology and Biophysics Department of the Biomedical Science Institute of the University of São Paulo. The tumor-bearing animal was sacrificed and the tumoral tissue was removed, placed on a Petri dish containing 0.9% saline. Then, the tumor was cut in smaller parts, and transferred into a beaker containing saline. The material was triturated with a fine-cut, until the tumor is totally fragmented. Then, this material was filtered in gauze and the liquid collected in a beaker. All procedures were performed on ice. The material of the beaker was transferred to 50 ml plastic tubes and centrifuged at 4° C., for 10 minutes, at 1200 rpm. After centrifugation, the supernatant was rejected and the precipitate resuspended in saline 0.9%. For cell counts, the suspension of cells was diluted (1:100) in saline. An aliquot (200 μl) was removed and placed in a test tube containing 200 μl of 1% Trypan blue. The cell number was determined in optical microscope using Neubauer's chamber. The cellular viability was determined considering viable the light-refracting cells.
After determining the number of cells, 1 ml of the suspension, containing 1×10^7 cells, was injected by intraperitoneal route, on the right side of the rats to obtain liquid tumor (ascites).
Five days after injection, the rats with ascites were sacrificed and the ascetic fluid collected from the peritoneal cavity and placed in a test tube containing EDTA. The liquid was diluted 100 times with phosphate-buffered saline (PBS), pH 7.4. The cell count was done after dilution with Trypan blue, as described above. Tumor cell count was ascertained to 1×10^6 cells in 100 μl, by dilution with PBS. This number of cells was determined in preliminary tests for induction of cancer pain in rats. In this final cell number adjustment, the volume of antibiotic (Benzetacil®) added to the suspension (150,000 units of antibiotic/10 ml of suspension), was taken into consideration. The antibiotic was used in order to avoid microbial contamination. The cells were injected by intraplantar route into one of the rat hind paws. Control animals were injected with PBS into the contralateral paw, in the same experimental conditions.
Hyperalgesia, allodynia and spontaneous pain were determined before (BM-basal measurement) and 5 days after tumor cell injection, before (IM-initial measurement) and 2 hours after (FM-Final measurement) peptide administration.
The results were analyzed comparing the mean values of the basal and initial measurements, or of the initial and final measurements or, when determined, by comparing the mean values obtained in the different experimental groups (Tables 17, 18, 19).
as §1, with “were injected” for “were injected,”, “of 6” for “of 5”, “antagonists. The results were analyzed comparing the mean values of the basal and initial measurements, or of the initial and final measurements or, when determined, by comparing the mean values obtained in the different experimental groups ( Table 20).” for “antagonists.”

Turning to `Oc1ccc2c3c1O[C@H]1c4[nH]c5c(c4C[C@@]4(O)[C@@H](C2)N(CC2CC2)CC[C@]314)C[C@@]1(O)[C@H]2Cc3ccc(O)c4c3[C@@]1(CCN2CC1CC1)[C@H]5O4` [nor-BNI, nor-Binalthorphimine, reference compound], in experiment [1], the “pain threshold, IM (g) ± S.E.M.” value is given as 72 ± 1.12 g and the “pain threshold, FM (g) ± S.E.M” value is 52 ± 2.79 g. In addition, in experiment [2], the “pain threshold, FM 1 h” value was determined as 32 ± 1.22 g; the “pain threshold, MF 3 h” value was found to be 31 ± 1.00 g; the “pain threshold, BM” value was 72 ± 1.22 g; the “pain threshold, IM” value amounted to 32 ± 1.22 g. Moreover, in experiment [3], the “paw withdrawal threshold (allodynia), FM” value is given as 4.41 ± 0.00 log 10 (mg × 10); the “paw withdrawal threshold (allodynia), IM” value is 4.41 ± 0.00 log 10 (mg × 10); the “paw withdrawal threshold (allodynia), BM” value is 4.97 ± 0.00 log 10 (mg × 10).

CTOP [reference compound]: in experiment [1], the “pain threshold, IM (g) ± S.E.M.” value is given as 73 ± 1.25 g and the “pain threshold, FM (g) ± S.E.M” value worked out at 49 ± 1.25 g. In addition, in experiment [2], the “pain threshold, FM 1 h” value is 30 ± 1.58 g; the “pain threshold, MF 3 h” value is recorded as 30 ± 1.58 g; the “pain threshold, BM” value came out at 72 ± 1.22 g; the “pain threshold, IM” value was 28 ± 1.22 g. For the same molecule, in experiment [3], the “paw withdrawal threshold (allodynia), FM” value is listed as 4.41 ± 0.00 log 10 (mg × 10); the “paw withdrawal threshold (allodynia), IM” value was 4.41 ± 0.00 log 10 (mg × 10); the “paw withdrawal threshold (allodynia), BM” value was 4.97 ± 0.00 log 10 (mg × 10).
